According to ChEMBL document CHEMBL1201862, “PubChem BioAssay data set” (2004):
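In this assay, cells in 96-well plates receive the compound at five concentrations for 48 hours. Endpoints are linearly interpolated between the surrounding concentrations. GI50: concentration for 50% inhibition of growth.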 Active and inactive are the calls of the source. Rule as the data show it: active = GI50 up to about 1.1 µM and inactive = higher.

Legend:
Test in all cases: NCI tumour cell line growth inhibition, 48 h
[1] = system: 786-0
[2] = system: A498
[3] = system: A549
[4] = system: ACHN
[5] = system: CCRF-CEM
[6] = system: COLO 205
[7] = system: DLD-1
[8] = system: DMS-273
[9] = system: EKVX
[10] = system: HCC 2998
[11] = system: HCT-116
[12] = system: HL-60
[13] = system: HOP-62
[14] = system: HOP-92
[15] = system: HT-29
[16] = system: IGROV-1
[17] = system: K562
[18] = system: KM-20L2
[19] = system: KM12
[20] = system: LOX IMVI
[21] = system: LXFL 529
[22] = system: M14
[23] = system: M19-MEL
[24] = system: MOLT-4
[25] = system: Malme-3M
[26] = system: NCI-H23
[27] = system: NCI-H460
[28] = system: NCI-H522
[29] = system: OVCAR-5
[30] = system: OVCAR-8
[31] = system: RPMI-8226
[32] = system: RXF 393
[33] = system: RXF 631
[34] = system: SF-539
[35] = system: SK-MEL-28
[36] = system: SK-MEL-2
[37] = system: SK-MEL-5
[38] = system: SK-OV-3
[39] = system: SNB-19
[40] = system: SNB-75
[41] = system: SNB-78
[42] = system: SW-620
[43] = system: TK-10
[44] = system: U-251
[45] = system: UACC-257
[46] = system: UACC-62
[47] = system: UO-31
[48] = system: XF498
[49] = system: BT-549
[50] = system: CAKI-1
[51] = system: DMS-114
[52] = system: DU-145
[53] = system: HCT-15
[54] = system: Hs-578T
[55] = system: MDA-MB-231
[56] = system: MDA-MB-435
[57] = system: MDA-N
[58] = system: NCI-H226
[59] = system: OVCAR-3
[60] = system: OVCAR-4
[61] = system: PC-3
[62] = system: SF-268
[63] = system: SF-295
[64] = system: SN12C
[65] = system: SR
[66] = system: T47D

In the case of `CC(C)(c1ccccc1)c1ccc(Oc2ccc3c(c2)-c2nc-3nc3[nH]c(nc4nc(nc5[nH]c(n2)c2ccc(Oc6ccc(C(C)(C)c7ccccc7)cc6)cc52)-c2cc(Oc5ccc(C(C)(C)c6ccccc6)cc5)ccc2-4)c2ccc(Oc4ccc(C(C)(C)c5ccccc5)cc4)cc32)cc1`, the GI50 [1] is reported as > 100000 nM (inactive), the GI50 [2] is reported as > 100000 nM (inactive) and the GI50 [3] is reported as > 100000 nM (inactive). The GI50 [4] was > 100000 nM (inactive), the GI50 [5] was > 100000 nM (inactive) and the GI50 [6] was > 100000 nM (inactive). The GI50 [7] was > 100000 nM (inactive), the GI50 [8] was > 100000 nM (inactive) and the GI50 [9] was > 100000 nM (inactive). For the same compound, the GI50 [10] was > 100000 nM (inactive), the GI50 [11] was > 100000 nM (inactive) and the GI50 [12] was > 100000 nM (inactive). The GI50 [13] was 64600 nM (inactive), the GI50 [14] was 17800 nM (inactive) and the GI50 [15] was > 100000 nM (inactive). For the same compound, the GI50 [16] was > 100000 nM (inactive), the GI50 [17] was > 100000 nM (inactive) and the GI50 [18] was > 100000 nM (inactive). The GI50 [19] was > 100000 nM (inactive), the GI50 [20] was > 100000 nM (inactive) and the GI50 [21] was > 100000 nM (inactive). For the same compound, the GI50 [22] was > 100000 nM (inactive), the GI50 [23] was > 100000 nM (inactive) and the GI50 [24] was > 100000 nM (inactive). For the same compound, the GI50 [25] was > 100000 nM (inactive), the GI50 [26] was > 100000 nM (inactive) and the GI50 [27] was > 100000 nM (inactive). For the same compound, the GI50 [28] was 86900 nM (inactive), the GI50 [29] was > 100000 nM (inactive) and the GI50 [30] was > 100000 nM (inactive). The GI50 [31] was > 100000 nM (inactive), the GI50 [32] was 23900 nM (inactive) and the GI50 [33] was > 100000 nM (inactive). The GI50 [34] was 35000 nM (inactive), the GI50 [35] was > 100000 nM (inactive) and the GI50 [36] was > 100000 nM (inactive). The GI50 [37] was > 100000 nM (inactive), the GI50 [38] was > 100000 nM (inactive) and the GI50 [39] was 92000 nM (inactive). For the same compound, the GI50 [40] was 27800 nM (inactive), the GI50 [41] was > 100000 nM (inactive) and the GI50 [42] was > 100000 nM (inactive). For the same compound, the GI50 [43] was 80200 nM (inactive), the GI50 [44] was 71300 nM (inactive) and the GI50 [45] was > 100000 nM (inactive). For the same compound, the GI50 [46] was > 100000 nM (inactive), the GI50 [47] was > 100000 nM (inactive) and the GI50 [48] was 78000 nM (inactive).
For `CCCCC(=O)OCC(=O)[C@]1(O)Cc2c(O)c3c(c(O)c2[C@@H](OC2CC(NC(=O)C(F)(F)F)C(O)C(C)O2)C1)C(=O)c1c(OC)cccc1C3=O` (stereo partly drawn), the GI50 [1] was 232 nM (active), the GI50 [2] was 247 nM (active) and the GI50 [3] was 194 nM (active). For the same compound, the GI50 [4] was 406 nM (active), the GI50 [49] was 2110 nM (inactive) and the GI50 [50] was 203 nM (active). The GI50 [5] was 135 nM (active), the GI50 [6] was 1110 nM (active) and the GI50 [7] was 538 nM (active). For the same compound, the GI50 [51] was 268 nM (active), the GI50 [8] was 138 nM (active) and the GI50 [52] was 365 nM (active). For the same compound, the GI50 [9] was 2430 nM (inactive), the GI50 [10] was 1300 nM (inactive) and the GI50 [11] was 294 nM (active). For the same compound, the GI50 [53] was 1390 nM, the GI50 [12] was 126 nM (active) and the GI50 [13] was 183 nM (active). The GI50 [14] was 376 nM (active), the GI50 [15] was 740 nM (active) and the GI50 [54] was 1730 nM (inactive). The GI50 [16] was 794 nM (active), the GI50 [17] was 337 nM (active) and the GI50 [18] was 2190 nM (inactive). For the same compound, the GI50 [19] was 787 nM (active), the GI50 [20] was 163 nM (active) and the GI50 [21] was 743 nM (active). For the same compound, the GI50 [22] was 832 nM (active), the GI50 [23] was 331 nM (active) and the GI50 [55] was 3000 nM (inactive). The GI50 [56] was 2070 nM (inactive), the GI50 [57] was 1150 nM (inactive) and the GI50 [24] was 22.8 nM (active). For the same compound, the GI50 [25] was 711 nM (active), the GI50 [58] was 40.1 nM (active) and the GI50 [26] was 351 nM (active). For the same compound, the GI50 [27] was 21.4 nM (active), the GI50 [28] was 736 nM (active) and the GI50 [59] was 2960 nM (inactive). The GI50 [60] was 2080 nM (inactive), the GI50 [29] was 1520 nM (inactive) and the GI50 [30] was 519 nM (active). For the same compound, the GI50 [61] was 1140 nM (inactive), the GI50 [31] was 181 nM (active) and the GI50 [32] was 820 nM (active). The GI50 [33] was 682 nM (active), the GI50 [62] was 403 nM (active) and the GI50 [63] was 308 nM (active). For the same compound, the GI50 [34] was 387 nM (active), the GI50 [35] was 1730 nM (inactive) and the GI50 [36] was 962 nM (active). The GI50 [37] was 327 nM (active), the GI50 [38] was 345 nM (active) and the GI50 [64] was 290 nM (active). The GI50 [39] was 348 nM (active), the GI50 [40] was 1020 nM (active) and the GI50 [65] was 30.4 nM (active). For the same compound, the GI50 [42] was 261 nM (active), the GI50 [66] was 540 nM (active) and the GI50 [43] was 2470 nM (inactive). The GI50 [44] was 221 nM (active), the GI50 [45] was 1300 nM (inactive) and the GI50 [46] was 184 nM (active). For the same compound, the GI50 [47] was 1060 nM (active) and the GI50 [48] was 161 nM (active).
